# Experimental data taken from US8192719B2, “Methods and kits to diagnose growth hormone deficiency by oral administration of EP 1572 or EP 1573 compounds” (Aeterna Zentaris GmbH, priority 2006, dated 2012).
# Read-outs that look alike come from different tables or passages of the source.
# Experiment: pharmacokinetic profile of EP 1572 after oral administration in healthy male subjects
# Assay type: in vivo
# Conditions: human, plasma EP 1572, oral, mean ± SEM; for AUC(0-t): read-out: AUC (0-300) (converted)
# Experimental: After a provocative test with EP 1572, the pharmacokinetic profile of EP 1572 and the level of GH released in response to its oral administration were established in 36 healthy male subjects at various doses.
# From the subject a blood sample was drawn at 30 and 15 minutes before the administration of EP 1572. A sample of blood was taken from the subject immediately before the aqueous formulation containing 0.5 mg/kg of EP 1572 was orally administered to the subject. Further blood samples were taken from the subject at 15, 30, 60, 90, 120, 150, 180, 210, 240, 270 and 300 minutes from administration and a portion of each sample processed according to the assay protocol outlined below. The level of GH present in each sample was determined by the assay method outlined below and the peak concentration (Cmax) for the subject determined. The remainder of the sample was used to determine the level of EP 1572 present in the systemic circulation (as outlined below).
# The organic components in human plasma were extracted using a total of […] of an ethyl acetate/iso-propanol mixture (82.5% and 17.5%, respectively). […] Quantification was performed with EP 1573 as an internal standard (peak area ratio evaluation).
# Further dosing studies were carried out wherein the subjects were administered doses of 0.005, 0.05, 0.25 and 0.125 mg/kg each, using the formulations described above.
structure (smiles),measurement,setting,value
"CC(C)(N)C(=O)N[C@H](Cc1c[nH]c2ccccc12)C(=O)N[C@H](Cc1c[nH]c2ccccc12)NC=O [EP 1572, H-Aib-D-Trp-D-gTrp-CHO]",Cmax,0.05 mg/kg,0.86 ± 0.24 ng/mL
same,Tmax,0.05 mg/kg,75 min
same,AUC(0-t),0.05 mg/kg,1.74 ng·h/mL
same,Cmax,0.125 mg/kg,2.33 ± 0.39 ng/mL
same,Tmax,0.125 mg/kg,62.5 min
same,AUC(0-t),0.125 mg/kg,5.35 ng·h/mL
same,Cmax,0.25 mg/kg,3.92 ± 0.57 ng/mL
same,Tmax,0.25 mg/kg,55 min
same,AUC(0-t),0.25 mg/kg,8.67 ng·h/mL
same,Cmax,0.5 mg/kg,7.59 ± 0.83 ng/mL
same,Tmax,0.5 mg/kg,50 min
same,AUC(0-t),0.5 mg/kg,16.1 ng·h/mL
